Assay [1] has as its system Plasmodium falciparum. Put plainly: Antimalarial activity against chloroquine-sensitive Plasmodium falciparum D6 assessed as plasmodial LDH activity. The class given is functional, organism-based.
The test system of assay [2] is Plasmodium falciparum. The assay can be described thus: Antimalarial activity against chloroquine-resistant Plasmodium falciparum W2 assessed as plasmodial LDH activity. It is filed as functional, organism-based.

For orientation: IC50 means the midpoint of a concentration-inhibition curve. With `Cc1cc(N2CCN(c3ccnc4cc(Cl)ccc34)CC2)nc(NC2CCCCC2)n1`, the IC50 in assay [1] and in assay [2] was 130 nM in each case.

With `Cc1cc(NCCCCNc2ccnc3cc(Cl)ccc23)nc(NCCO)n1`, the IC50 in assay [1] and in assay [2] was 50 nM each time.

Turning to `OCCCCCCNc1nccc(NCCNc2ccnc3cc(Cl)ccc23)n1`, the half-inhibitory concentration (IC50) in assay [1] and in assay [2] was 50 nM throughout.

For the compound `OCCCCCNc1nccc(NCCCCNc2ccnc3cc(Cl)ccc23)n1`, the IC50 in assay [1] and in assay [2] was 50 nM throughout.

For the compound `COc1cc(Nc2nccc(N3CCN(c4ccnc5cc(Cl)ccc45)CC3)n2)cc(OC)c1`, the IC50 in assay [1] and in assay [2] was 130 nM in each case.

For the compound `Clc1ccc2c(NCCCNc3ccnc(Cl)n3)ccnc2c1`, the IC50 in assay [1] and in assay [2] was 50 nM each time.

`Cc1cc(NCCCNc2ccnc3cc(Cl)ccc23)nc(NCCCCCCO)n1`: the IC50 in assay [1] and in assay [2] was 50 nM in each case.

On to `OCCCCNc1nccc(NCCCCNc2ccnc3cc(Cl)ccc23)n1`, for which the IC50 in assay [1] and in assay [2] was 50 nM in each case.

As for `Clc1ccc2c(N3CCN(c4ccnc(Nc5ccccc5)n4)CC3)ccnc2c1`, the IC50 in assay [1] and in assay [2] was 130 nM each time.

With `Cc1cc(NCCNc2ccnc3cc(Cl)ccc23)nc(NCCCCCO)n1`, the IC50 in assay [1] and in assay [2] was 50 nM each time.

On to `Clc1ccc2c(NCCCNc3ccnc(N4CCOCC4)n3)ccnc2c1`, for which the IC50 in assay [1] and in assay [2] was 50 nM in each case.

Consider `Cc1cc(NCCCNc2ccnc3cc(Cl)ccc23)nc(NCCCO)n1`, for which the 50% inhibitory concentration (IC50) in assay [1] and in assay [2] was 50 nM in each case.

For the compound `CCN1CCN(c2nc(Cl)cc(NCCNc3ccnc4cc(Cl)ccc34)n2)CC1`, the IC50 in assay [1] and in assay [2] was 50 nM throughout.

`Cc1cc(N2CCN(c3ccnc4cc(Cl)ccc34)CC2)nc(NCCO)n1`: the IC50 in assay [1] and in assay [2] was 130 nM throughout.

On to `Cc1cc(NCCNc2ccnc3cc(Cl)ccc23)nc(NCCCCO)n1`, for which the IC50 in assay [1] and in assay [2] was 50 nM throughout.

On to `Cc1cc(N2CCN(c3ccnc4cc(Cl)ccc34)CC2)nc(Nc2ccc(Cl)cc2)n1`, for which the IC50 in assay [1] and in assay [2] was 130 nM throughout.

For the compound `Clc1ccc2c(NCCCNc3cc(Cl)nc(Cl)n3)ccnc2c1`, the IC50 in assay [1] and in assay [2] was 50 nM each time.

Take `Clc1ccc2c(NCCCNc3cc(Cl)nc(N4CCOCC4)n3)ccnc2c1`: the IC50 in assay [1] and in assay [2] was 50 nM throughout.

As to `Cc1cc(NCCCCNc2ccnc3cc(Cl)ccc23)nc(NCCCCCO)n1`, the IC50 in assay [1] and in assay [2] was 50 nM each time.

On to `Clc1ccc(Nc2nccc(N3CCN(c4ccnc5cc(Cl)ccc45)CC3)n2)cc1`, for which the IC50 in assay [1] and in assay [2] was 130 nM each time.

On to `Cc1cc(N2CCN(c3ccnc4cc(Cl)ccc34)CC2)nc(NCCCO)n1`, for which the IC50 in assay [1] and in assay [2] was 130 nM in each case.

In the case of `Fc1ccc(Nc2nccc(N3CCN(c4ccnc5cc(Cl)ccc45)CC3)n2)cc1`, the IC50 in assay [1] and in assay [2] was 130 nM each time.

For `COc1ccc(Nc2nc(C)cc(N3CCN(c4ccnc5cc(Cl)ccc45)CC3)n2)cc1`, the IC50 in assay [1] and in assay [2] was 130 nM in each case.

Regarding `Cc1cc(NCCNc2ccnc3cc(Cl)ccc23)nc(NCCCCCCO)n1`, the IC50 in assay [1] and in assay [2] was 50 nM each time.

As for `CCN1CCN(c2nc(Cl)cc(NCCCNc3ccnc4cc(Cl)ccc34)n2)CC1`, the IC50 in assay [1] and in assay [2] was 50 nM throughout.

For the compound `Clc1ccc2c(NCCNc3cc(Cl)nc(N4CCCCC4)n3)ccnc2c1`, the IC50 in assay [1] and in assay [2] was 50 nM in each case.

For the compound `Clc1ccc2c(NCCNc3cc(Cl)nc(N4CCOCC4)n3)ccnc2c1`, the IC50 in assay [1] and in assay [2] was 50 nM throughout.

In the case of `OCCCNc1nccc(N2CCN(c3ccnc4cc(Cl)ccc34)CC2)n1`, the IC50 in assay [1] and in assay [2] was 130 nM throughout.

Consider `CCN1CCN(c2nccc(NCCCNc3ccnc4cc(Cl)ccc34)n2)CC1`, for which the IC50 in assay [1] and in assay [2] was 50 nM throughout.

Consider `Clc1ccc2c(NCCCNc3cc(Cl)nc(N4CCCCC4)n3)ccnc2c1`, for which the IC50 in assay [1] and in assay [2] was 50 nM each time.

As to `OCCCNc1nccc(NCCCCNc2ccnc3cc(Cl)ccc23)n1`, the IC50 in assay [1] and in assay [2] was 50 nM in each case.

Turning to `Cc1cc(NCCCCNc2ccnc3cc(Cl)ccc23)nc(NCCCCO)n1`, the IC50 in assay [1] and in assay [2] was 50 nM in each case.

Consider `Cc1cc(N2CCN(c3ccnc4cc(Cl)ccc34)CC2)nc(Nc2ccc(Br)cc2)n1`, for which the IC50 in assay [1] and in assay [2] was 130 nM each time.

Consider `Cc1cc(N2CCN(c3ccnc4cc(Cl)ccc34)CC2)nc(N2CCCC2)n1`, for which the IC50 in assay [1] and in assay [2] was 130 nM throughout.

Turning to `COc1ccc(Nc2nccc(N3CCN(c4ccnc5cc(Cl)ccc45)CC3)n2)cc1`, the IC50 in assay [1] and in assay [2] was 130 nM in each case.

As to `Cc1cc(N2CCN(c3ccnc4cc(Cl)ccc34)CC2)nc(Nc2ccc(F)cc2)n1`, the IC50 in assay [1] and in assay [2] was 130 nM in each case.

On to `OCCCCCNc1nccc(NCCNc2ccnc3cc(Cl)ccc23)n1`, for which the IC50 in assay [1] and in assay [2] was 50 nM each time.

Take `Clc1ccc2c(NCCNc3ccnc(N4CCCCC4)n3)ccnc2c1`: the IC50 in assay [1] and in assay [2] was 50 nM each time.

As for `Cc1cc(NCCCCNc2ccnc3cc(Cl)ccc23)nc(NCCCO)n1`, the IC50 in assay [1] and in assay [2] was 50 nM in each case.

As for `CCN1CCN(c2nccc(NCCNc3ccnc4cc(Cl)ccc34)n2)CC1`, the IC50 in assay [1] and in assay [2] was 50 nM in each case.

`Clc1ccc2c(N3CCN(c4ccnc(Nc5ccc(Br)cc5)n4)CC3)ccnc2c1`: the IC50 in assay [1] and in assay [2] was 130 nM in each case.

Consider `Cc1cc(NCCCNc2ccnc3cc(Cl)ccc23)nc(NCCO)n1`, for which the IC50 in assay [1] and in assay [2] was 50 nM each time.

In the case of `Cc1cc(N2CCN(c3ccnc4cc(Cl)ccc34)CC2)nc(Cl)n1`, the IC50 in assay [1] and in assay [2] was 130 nM in each case.

For `Cc1cc(NCCCNc2ccnc3cc(Cl)ccc23)nc(NCCCCCO)n1`, the IC50 in assay [1] and in assay [2] was 50 nM each time.

Take `Cc1cc(NCCCCNc2ccnc3cc(Cl)ccc23)nc(NCCCCCCO)n1`: the half-maximal inhibitory concentration (IC50) in assay [1] and in assay [2] was 50 nM each time.

With `OCCNc1nccc(NCCNc2ccnc3cc(Cl)ccc23)n1`, the IC50 in assay [1] and in assay [2] was 50 nM each time.

For `Cc1ccc(Nc2nc(C)cc(N3CCN(c4ccnc5cc(Cl)ccc45)CC3)n2)cc1`, the IC50 in assay [1] and in assay [2] was 130 nM in each case.

In the case of `Cc1cc(NCCCNc2ccnc3cc(Cl)ccc23)nc(NCCCCO)n1`, the IC50 in assay [1] and in assay [2] was 50 nM each time.

As to `Clc1ccc2c(NCCNc3ccnc(Cl)n3)ccnc2c1`, the IC50 in assay [1] and in assay [2] was 50 nM throughout.

With `OCCNc1nccc(NCCCCNc2ccnc3cc(Cl)ccc23)n1`, the IC50 in assay [1] and in assay [2] was 50 nM each time.

On to `Clc1ccc2c(NCCCNc3ccnc(N4CCCCC4)n3)ccnc2c1`, for which the IC50 in assay [1] and in assay [2] was 50 nM in each case.

Regarding `COc1cc(Nc2nc(C)cc(N3CCN(c4ccnc5cc(Cl)ccc45)CC3)n2)cc(OC)c1`, the IC50 in assay [1] and in assay [2] was 130 nM each time.

In the case of `OCCNc1nccc(N2CCN(c3ccnc4cc(Cl)ccc34)CC2)n1`, the IC50 in assay [1] and in assay [2] was 130 nM in each case.

With `Cc1cc(NCCNc2ccnc3cc(Cl)ccc23)nc(NCCCO)n1`, the IC50 in assay [1] and in assay [2] was 50 nM throughout.

With `OCCCCCNc1nccc(NCCCNc2ccnc3cc(Cl)ccc23)n1`, the IC50 in assay [1] and in assay [2] was 50 nM each time.

Take `Cc1cc(N2CCN(c3ccnc4cc(Cl)ccc34)CC2)nc(Nc2ccccc2)n1`: the IC50 in assay [1] and in assay [2] was 130 nM in each case.

For `OCCCCNc1nccc(NCCCNc2ccnc3cc(Cl)ccc23)n1`, the IC50 in assay [1] and in assay [2] was 50 nM in each case.

With `Cc1cc(N2CCN(c3ccnc4cc(Cl)ccc34)CC2)nc(N2CCNCC2)n1`, the IC50 in assay [1] and in assay [2] was 130 nM in each case.

On to `OCCNc1nccc(NCCCNc2ccnc3cc(Cl)ccc23)n1`, for which the IC50 in assay [1] and in assay [2] was 50 nM throughout.

In the case of `Cc1ccc(Nc2nccc(N3CCN(c4ccnc5cc(Cl)ccc45)CC3)n2)cc1`, the IC50 in assay [1] and in assay [2] was 130 nM throughout.

Consider `Cc1cc(NCCNc2ccnc3cc(Cl)ccc23)nc(NCCO)n1`, for which the IC50 in assay [1] and in assay [2] was 50 nM throughout.

For `CN1CCN(c2nccc(NCCNc3ccnc4cc(Cl)ccc34)n2)CC1`, the IC50 in assay [1] and in assay [2] was 50 nM throughout.

`Clc1ccc2c(NCCNc3cc(Cl)nc(Cl)n3)ccnc2c1`: the IC50 in assay [1] and in assay [2] was 50 nM in each case.

Regarding `OCCCCCCNc1nccc(NCCCCNc2ccnc3cc(Cl)ccc23)n1`, the IC50 in assay [1] and in assay [2] was 50 nM throughout.

In the case of `OCCCCCCNc1nccc(NCCCNc2ccnc3cc(Cl)ccc23)n1`, the IC50 in assay [1] and in assay [2] was 50 nM in each case.

On to `OCCCCNc1nccc(NCCNc2ccnc3cc(Cl)ccc23)n1`, for which the IC50 in assay [1] and in assay [2] was 50 nM each time.

Consider `OCCCNc1nccc(NCCCNc2ccnc3cc(Cl)ccc23)n1`, for which the IC50 in assay [1] and in assay [2] was 50 nM in each case.

As for `CN1CCN(c2nccc(NCCCNc3ccnc4cc(Cl)ccc34)n2)CC1`, the IC50 in assay [1] and in assay [2] was 50 nM each time.

On to `CN1CCN(c2nc(Cl)cc(NCCCNc3ccnc4cc(Cl)ccc34)n2)CC1`, for which the IC50 in assay [1] and in assay [2] was 50 nM each time.

In the case of `OCCCNc1nccc(NCCNc2ccnc3cc(Cl)ccc23)n1`, the IC50 in assay [1] and in assay [2] was 50 nM in each case.

As for `CN1CCN(c2nc(Cl)cc(NCCNc3ccnc4cc(Cl)ccc34)n2)CC1`, the IC50 in assay [1] and in assay [2] was 50 nM throughout.

As to `Cc1cc(N2CCN(c3ccnc4cc(Cl)ccc34)CC2)nc(N2CCOCC2)n1`, the IC50 in assay [1] and in assay [2] was 130 nM throughout.

Values taken from ChEMBL document CHEMBL3817764, “Pyrimidine-based antimalarials: design strategies and antiplasmodial effects” (Medchemcomm, 2016).
